Experimental data reported in PubChem BioAssay AID330 (DTP/NCI, 2004).
Where “and” joins values, the source holds several entries; their conditions need not be identical. Equal values may be shown once. Toxic doses and inconclusive results are not listed.

Tested on: P388 leukemia ip, CD2F1 mice, survival T/C
Assay: NCI In Vivo Anticancer Drug Screen. Data for tumor model P388 Leukemia (intraperitoneal) in CD2F1 (CDF1) mice
Conditions: endpoint: median survival time, higher = longer survival
Outline: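 Mice carrying the transplanted tumor received test compound or vehicle. Survival was recorded in each group, and the value is the treated-group measurement divided by that of the vehicle-treated control group.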

[1] = dose: 50.0 mg/kg/injection, schedule: Q01DX009 (ip), vehicle: saline
[2] = dose: 100.0 mg/kg/injection, schedule: Q01DX009 (ip), vehicle: saline
[3] = dose: 200.0 mg/kg/injection, schedule: Q01DX009 (ip), vehicle: saline
[4] = dose: 50.0 mg/kg/injection, schedule: Q01DX009 (ip), vehicle: Klucel (hydroxypropylcellulose) (HPC)
[5] = dose: 100.0 mg/kg/injection, schedule: Q01DX009 (ip), vehicle: Klucel (hydroxypropylcellulose) (HPC)
[6] = dose: 200.0 mg/kg/injection, schedule: Q01DX009 (ip), vehicle: Klucel (hydroxypropylcellulose) (HPC)
[7] = dose: 6.25 mg/kg/injection, schedule: Q01DX009 (ip), vehicle: Klucel (hydroxypropylcellulose) (HPC)
[8] = dose: 12.5 mg/kg/injection, schedule: Q01DX009 (ip), vehicle: Klucel (hydroxypropylcellulose) (HPC)

CCOC(=O)Oc1ccc[nH]c1=O
T/C (dose: 25.0 mg/kg/injection, schedule: Q01DX009 (ip), vehicle: saline): 100 % of control and 96 % of control
T/C (dose: 25.0 mg/kg/injection, schedule: Q01DX009 (sc), vehicle: saline with Tween-80): 100 % of control and 109 % of control
T/C [1]: 100 % of control
T/C (dose: 50.0 mg/kg/injection, schedule: Q01DX009 (sc), vehicle: saline with Tween-80): 108 % of control and 109 % of control
T/C [2]: 108 % of control and 109 % of control
T/C (dose: 100.0 mg/kg/injection, schedule: Q01DX009 (sc), vehicle: saline with Tween-80): 106 % of control and 115 % of control
T/C [3]: 111 % of control and 113 % of control
T/C (dose: 200.0 mg/kg/injection, schedule: Q01DX009 (sc), vehicle: saline with Tween-80): 104 % of control and 116 % of control
T/C (dose: 400.0 mg/kg/injection, schedule: Q01DX009 (ip), vehicle: saline): 117 % of control and 124 % of control
T/C (dose: 400.0 mg/kg/injection, schedule: Q01DX009 (sc), vehicle: saline with Tween-80): 101 % of control and 108 % of control
T/C (dose: 600.0 mg/kg/injection, schedule: Q01DX009 (sc), vehicle: saline with Tween-80): 107 % of control and 112 % of control

CC(Cl)CN(CC(C)Cl)C(=O)Oc1ccc(CC(N)C(=O)O)cc1 (configuration not stated)
T/C [4]: 91 % of control
T/C [5]: 89 % of control
T/C [6]: 97 % of control

N#CC1C(=O)NC(=O)C(C#N)C1c1cccc(O)c1 (configuration not stated)
T/C [4]: 96 % of control
T/C [5]: 101 % of control
T/C [6]: 97 % of control

O=C(c1ccccc1)N1CCCSC1=S
T/C (dose: 60.0 mg/kg/injection, schedule: Q01DX005 (ip), vehicle: saline with Tween-80): 101 % of control
T/C (dose: 120.0 mg/kg/injection, schedule: Q01DX005 (ip), vehicle: saline with Tween-80): 105 % of control
T/C (dose: 240.0 mg/kg/injection, schedule: Q01DX005 (ip), vehicle: saline with Tween-80): 104 % of control

N#CC1OC1c1ccccn1 (configuration not stated)
T/C (dose: 6.25 mg/kg/injection, schedule: Q01DX005 (ip), vehicle: saline + Tween-80 + alcohol): 98 % of control
T/C (dose: 12.5 mg/kg/injection, schedule: Q01DX005 (ip), vehicle: saline + Tween-80 + alcohol): 98 % of control

CCCCCCCCCCCCCCCC(=O)OCC1OC(n2ccc(N)nc2=O)C(O)C1O (configuration not stated)
T/C (dose: 0.29 mg/kg/injection, schedule: Q01DX009 (ip), vehicle: saline with Tween-80): 104 % of control
T/C (dose: 0.44 mg/kg/injection, schedule: Q01DX009 (ip), vehicle: saline with Tween-80): 104 % of control
T/C (dose: 0.66 mg/kg/injection, schedule: Q01DX009 (ip), vehicle: saline with Tween-80): 122 % of control
T/C (dose: 0.88 mg/kg/injection, schedule: Q01DX009 (ip), vehicle: saline with Tween-80): 152 % of control
T/C (dose: 1.32 mg/kg/injection, schedule: Q01DX009 (ip), vehicle: saline with Tween-80): 166 % of control
T/C (dose: 2.0 mg/kg/injection, schedule: Q01DX009 (ip), vehicle: saline with Tween-80): 185 % of control
T/C (dose: 3.0 mg/kg/injection, schedule: Q01DX009 (ip), vehicle: saline with Tween-80): 200 % of control
T/C (dose: 3.13 mg/kg/injection, schedule: Q04DX003 (ip), vehicle: saline with Tween-80): 163 % of control
T/C (dose: 6.25 mg/kg/injection, schedule: Q04DX003 (ip), vehicle: saline with Tween-80): 181 % of control and 195 % of control
T/C (dose: 12.5 mg/kg/injection, schedule: Q04DX003 (ip), vehicle: saline sonified): 204 % of control
T/C (dose: 12.5 mg/kg/injection, schedule: Q04DX003 (ip), vehicle: saline with Tween-80): 218 % of control and 222 % of control
T/C (dose: 15.0 mg/kg/injection, schedule: Q01DX009 (ip), vehicle: saline with Tween-80): 221 % of control and 345 % of control
T/C (dose: 20.0 mg/kg/injection, schedule: Q01DX001 (ip), vehicle: saline with Tween-80): 154 % of control
T/C (dose: 20.0 mg/kg/injection, schedule: Q01DX009 (ip), vehicle: saline with Tween-80): 228 % of control and 538 % of control and 548 % of control
T/C (dose: 24.0 mg/kg/injection, schedule: Q01DX009 (ip), vehicle: saline with Tween-80): 344 % of control
T/C (dose: 25.0 mg/kg/injection, schedule: Q01DX009 (ip), vehicle: saline with Tween-80): 170 % of control and 539 % of control
T/C (dose: 25.0 mg/kg/injection, schedule: Q04DX003 (ip), vehicle: saline sonified): 250 % of control
T/C (dose: 25.0 mg/kg/injection, schedule: Q04DX003 (ip), vehicle: saline with Tween-80): 254 % of control
T/C (dose: 31.75 mg/kg/injection, schedule: Q04DX002 (ip), vehicle: Klucel (hydroxypropylcellulose) (HPC)): 250 % of control and 256 % of control
T/C (dose: 32.0 mg/kg/injection, schedule: Q04DX003 (ip), vehicle: saline with Tween-80): 194 % of control and 264 % of control
T/C (dose: 37.5 mg/kg/injection, schedule: Q01DX001 (ip), vehicle: saline with Tween-80): 181 % of control
T/C (dose: 40.0 mg/kg/injection, schedule: Q01DX001 (ip), vehicle: saline with Tween-80): 204 % of control
T/C (dose: 48.0 mg/kg/injection, schedule: Q04DX003 (ip), vehicle: saline with Tween-80): 216 % of control and 350 % of control
T/C (dose: 50.0 mg/kg/injection, schedule: Q01DX001 (ip), vehicle: Klucel (hydroxypropylcellulose) (HPC)): 155 % of control
T/C (dose: 50.0 mg/kg/injection, schedule: Q04DX003 (ip), vehicle: saline sonified): 250 % of control
T/C (dose: 60.0 mg/kg/injection, schedule: Q03DX003 (ip), vehicle: saline with Tween-80): 536 % of control
T/C (dose: 62.5 mg/kg/injection, schedule: Q04DX002 (ip), vehicle: Klucel (hydroxypropylcellulose) (HPC)): 263 % of control and 275 % of control
T/C (dose: 70.0 mg/kg/injection, schedule: Q03DX003 (ip), vehicle: saline with Tween-80): 536 % of control
T/C (dose: 72.0 mg/kg/injection, schedule: Q04DX003 (ip), vehicle: saline with Tween-80): 213 % of control and 511 % of control
T/C (dose: 75.0 mg/kg/injection, schedule: Q01DX001 (ip), vehicle: saline with Tween-80): 181 % of control
T/C (dose: 80.0 mg/kg/injection, schedule: Q03DX003 (ip), vehicle: saline with Tween-80): 459 % of control
T/C (dose: 90.0 mg/kg/injection, schedule: Q03DX003 (ip), vehicle: saline with Tween-80): 378 % of control
T/C (dose: 125.0 mg/kg/injection, schedule: Q04DX002 (ip), vehicle: Klucel (hydroxypropylcellulose) (HPC)): 263 % of control and 275 % of control

O=C(O)CN(CC(=O)O)C1CC1N(CC(=O)O)CC(=O)O (configuration not stated)
T/C [1]: 97 % of control
T/C (dose: 100.0 mg/kg/injection, schedule: Q01DX001 (ip), vehicle: saline): 96 % of control
T/C [2]: 100 % of control
T/C (dose: 200.0 mg/kg/injection, schedule: Q01DX001 (ip), vehicle: saline): 100 % of control
T/C [3]: 97 % of control
T/C (dose: 400.0 mg/kg/injection, schedule: Q01DX001 (ip), vehicle: saline): 97 % of control

C1=CCC23CCCCC2(C1)CN(/N=N/N1CC24CC=CCC2(CCCC4)C1)C3 (configuration not stated)
T/C [7]: 87 % of control
T/C [8]: 86 % of control

CCCCCCCCC(O)C#CC(O)CCCCCCCC (configuration not stated)
T/C (dose: 12.5 mg/kg/injection, schedule: Q01DX005 (ip), vehicle: saline with Tween-80): 92 % of control
T/C (dose: 25.0 mg/kg/injection, schedule: Q01DX005 (ip), vehicle: saline with Tween-80): 90 % of control
T/C (dose: 50.0 mg/kg/injection, schedule: Q01DX005 (ip), vehicle: saline with Tween-80): 101 % of control and 91 % of control
T/C (dose: 100.0 mg/kg/injection, schedule: Q01DX005 (ip), vehicle: saline with Tween-80): 100 % of control

CC12OCCC1C(c1ccccc1[N+](=O)[O-])Nc1ccccc12 (configuration not stated)
T/C (dose: 100.0 mg/kg/injection, schedule: Q01DX001 (ip), vehicle: saline with Tween-80): 114 % of control
T/C (dose: 200.0 mg/kg/injection, schedule: Q01DX001 (ip), vehicle: saline with Tween-80): 97 % of control
T/C (dose: 400.0 mg/kg/injection, schedule: Q01DX001 (ip), vehicle: saline with Tween-80): 94 % of control

N#C/C1=C(\C#N)CCC2(C#N)C3C=CC(O3)C2(C#N)CC1 (configuration not stated)
T/C (dose: 3.12 mg/kg/injection, schedule: Q01DX009 (ip), vehicle: Klucel (hydroxypropylcellulose) (HPC)): 103 % of control
T/C [7]: 100 % of control
T/C [8]: 100 % of control

CC1=C(C)[C@]2(C)C(C)[C@]13Cn1c(=O)n(-c4ccccc4)c(=O)n1[C@@]32C (some centres not stated)
T/C (dose: 50.0 mg/kg/injection, schedule: Q01DX005 (ip), vehicle: Klucel (hydroxypropylcellulose) (HPC)): 95 % of control
T/C (dose: 100.0 mg/kg/injection, schedule: Q01DX005 (ip), vehicle: Klucel (hydroxypropylcellulose) (HPC)): 94 % of control
T/C (dose: 200.0 mg/kg/injection, schedule: Q01DX005 (ip), vehicle: Klucel (hydroxypropylcellulose) (HPC)): 100 % of control

O=C1N[C@H]2[C@H](CS[C@H]2CCCCC(=O)N(CCP(c2ccccc2)c2ccccc2)CCP(c2ccccc2)c2ccccc2)N1
T/C [8]: 104 % of control and 111 % of control
T/C (dose: 25.0 mg/kg/injection, schedule: Q01DX009 (ip), vehicle: Klucel (hydroxypropylcellulose) (HPC)): 101 % of control and 105 % of control
T/C [4]: 103 % of control and 104 % of control
T/C [5]: 108 % of control and 124 % of control
T/C [6]: 114 % of control and 119 % of control
T/C (dose: 400.0 mg/kg/injection, schedule: Q01DX009 (ip), vehicle: Klucel (hydroxypropylcellulose) (HPC)): 102 % of control and 114 % of control
